Laboratory results published in US12384753B2, “17-beta-hydroxysteroid dehydrogenase type 13 inhibitors and methods of use thereof” (Enanta Pharmaceuticals, Inc., priority 2021, dated 2025).

Target: Recombinant human HSD17B13 (Homo sapiens (Human), UniProt Q7Z5P4)
Experiment: HSD17B13 rapid-fire mass spectrometry assay (RF/MS assay)
Format: biochemical
Conditions: inhibition of HSD17B13; LTB4 10 μM, NAD+ 0.5 mM, RT 3 h; IC50 ranges A-E
Source text: HSD17B13 rapid-fire mass spectrometry assay (RF/MS assay). Recombinant human HSD17B13 was expressed and purified from sf9 cells at Charles River Labs (Saffron Walden, UK). Leukotriene B4 (Catalog #71160-24-2) and 12-oxoleukotriene B4 (Catalog #20140) were purchased from Cayman Chemicals (Ann Arbor, Michigan.). NAD+ (Catalog #N8285), BSA (Catalog #A7030), DMSO (Catalog #D2650), and Tween-20 (Catalog #11332465001) were purchased from Sigma (St. Louis, MO). Formic acid (Catalog #28905) was from ThermoFisher Scientific and 384 deep well PP microplates (Catalog #784261) were from Greiner Bio-One. In a typical IC50 assay performed in a 384w PP microplate, test compounds (0-100 μM) were incubated with HSD17B13 (80 nM), LTB4 (10 μM), and NAD^+ (0.5 mM) in 10 μL assay buffer (20 mM Tris (pH 7.5), BSA (0.005%), and Tween-20 (0.01%)) at RT for 3 h. The assays were quenched by adding 20 μL of 0.15% aqueous formic acid and the plates were frozen at −80° C. RF/MS analysis was performed at PureHoney Technologies (Billerica, MA) on a RapidFire RF300 system (Agilent Technologies, Inc.) coupled to an API 4000 triple quadrupole mass spectrometer (Sciex) equipped with Agilent RapidFire cartridge type A (C4). The mobile phase was 0.09% formic acid and 0.01% trifluoracetic acid in water (Buffer A) and 0.09% formic acid and 0.01% trifluoracetic acid in 80% aqueous acetonitrile (Buffer B). The RapidFire method conditions were the following: 250 ms aspirate, 3000 ms load/desalt, 4000 ms elute, and 500 ms re-equilibrate. RF-MS/MS was performed in negative polarity (−4500 V), the source temperature was 650° C., and gas 1 and gas 2 settings for nitrogen were set to 50. The curtain gas and collision gas were also nitrogen and were set to 20 and 12, respectively. Leukotriene B4 (335.3) and 12-oxoLeukotriene B4 (333.3) SRM transitions were optimized with Discovery Quant software and extracted ion counts for these analytes were determined.
Data Analysis. HSD17B13 enzyme activity was measured as percent conversion of extracted ion counts and normalized to high and low controls to determine percent residual activity at various concentrations of test compounds. Data were fitted to normalized activity (variable slope) versus concentration fit in GraphPad Prism 7 to determine IC50. All experiments were run in duplicates.
By using above method, the inhibition of HSD17B13 was evaluated for the compounds of Formula (I). IC50 ranges are as follows: A=IC50<0.100 μM; B=0.100 μM<IC50<0.500 μM; C=0.500 μM<IC50<1 μM; D=1 μM<IC50<100 μM; E=IC50>100 μM

Chain of Recombinant human HSD17B13 (Q7Z5P4 20-300): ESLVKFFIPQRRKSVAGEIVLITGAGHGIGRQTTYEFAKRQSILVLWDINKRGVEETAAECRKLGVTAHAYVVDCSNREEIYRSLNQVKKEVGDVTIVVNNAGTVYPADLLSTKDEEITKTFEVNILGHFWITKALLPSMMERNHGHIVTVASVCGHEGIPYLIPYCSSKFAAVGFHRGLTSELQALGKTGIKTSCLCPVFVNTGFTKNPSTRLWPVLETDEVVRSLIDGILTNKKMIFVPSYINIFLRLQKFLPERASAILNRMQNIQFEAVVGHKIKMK

Row | IC50 | SMILES
1 | 500 to 1000 nM | O=C(O)c1ccc(NS(=O)(=O)c2cnc(-c3ccc(F)cc3)s2)cc1 [Example 60, 4-((2-(4-fluorophenyl)thiazole)-5-sulfonamido)benzoic acid]
2 | < 100 nM | O=C(O)c1cc(O)c(NS(=O)(=O)c2cnc(-c3ccc(F)cc3)s2)cc1F [Example 61]
3 | < 100 nM | O=C(O)c1ccc(NS(=O)(=O)c2cnc(-c3ccc(F)cc3)s2)c(O)c1F [Example 62]
4 | 500 to 1000 nM | O=C(O)c1ccc(NS(=O)(=O)c2csc(-c3ccc(O)cc3)n2)cc1 [Example 63]
5 | 1000 to 100000 nM | O=C(O)C1CCN(S(=O)(=O)c2cnc(-c3ccc(F)cc3)s2)CC1 [Example 64]
6 | > 100000 nM | O=C(O)C1CCCN(S(=O)(=O)c2cnc(-c3ccc(F)cc3)s2)C1 (stereo not shown) [Example 65]
7 | > 100000 nM | O=C(O)C1CCC(NS(=O)(=O)c2cnc(-c3ccc(F)cc3)s2)CC1 (stereo not shown) [Example 66]
8 | 1000 to 100000 nM | O=C(O)[C@H]1CC[C@H](NS(=O)(=O)c2cnc(-c3ccc(F)cc3)s2)CC1 [Example 67]
9 | > 100000 nM | O=C(O)C12CC(NS(=O)(=O)c3cnc(-c4ccc(F)cc4)s3)(C1)C2 [Example 68]
10 | 1000 to 100000 nM | COc1cc(C(=O)NO)ccc1NS(=O)(=O)c1cnc(-c2ccc(F)cc2)s1 [Example 69, 4-((2-(4-fluorophenyl)thiazole)-5-sulfonamido)-N-hydroxy-3-methoxybenzamide]
11 | 1000 to 100000 nM | CONC(=O)c1ccc(NS(=O)(=O)c2cnc(-c3ccc(F)cc3)s2)c(OC)c1 [Example 70]
12 | 1000 to 100000 nM | COc1cc(C(=O)N(C)O)ccc1NS(=O)(=O)c1cnc(-c2ccc(F)cc2)s1 [Example 71]
13 | 1000 to 100000 nM | COc1nc(C(=O)O)ccc1NS(=O)(=O)c1cnc(-c2ccc(F)cc2)s1 [Example 74]
14 | 1000 to 100000 nM | O=C(O)c1cc(NS(=O)(=O)c2cnc(-c3ccc(F)cc3)s2)cs1 [Example 75]
15 | 500 to 1000 nM | N#Cc1cc(C(=O)O)ccc1NS(=O)(=O)c1cnc(-c2ccc(F)cc2)s1 [Example 76]
16 | 1000 to 100000 nM | O=C(O)c1ccc(NS(=O)(=O)c2cnc(-c3ccc(F)cc3)s2)s1 [Example 77]
17 | 500 to 1000 nM | COc1cc(C(=O)O)c(Cl)cc1NS(=O)(=O)c1cnc(-c2ccc(F)cc2)s1 [Example 78]
18 | 1000 to 100000 nM | COc1cc(C(=O)O)ccc1NS(=O)(=O)c1cnn(-c2ccc(F)cc2)c1 [Example 79]
19 | 1000 to 100000 nM | COc1cc(C(=O)O)ccc1NS(=O)(=O)c1cnn(-c2ccc(F)cc2)c1C [Example 80]
20 | 100 to 500 nM | COc1cc(C(=O)O)ccc1NS(=O)(=O)c1cnc(-c2ccccc2)o1 [Example 81]
21 | 1000 to 100000 nM | O=C(O)c1ccc(NS(=O)(=O)c2cnc(-c3ccc(F)cc3)s2)c2ncccc12 [Example 82]
22 | 1000 to 100000 nM | O=C(O)c1cnc(NS(=O)(=O)c2cnc(-c3ccc(F)cc3)s2)nc1 [Example 83]
23 | 1000 to 100000 nM | COc1nc(C(=O)O)cnc1NS(=O)(=O)c1cnc(-c2ccc(F)cc2)s1 [Example 84]

Row | IC50 | SMILES
24 | 100 to 500 nM | COc1cc(C(=O)O)cnc1NS(=O)(=O)c1cnc(-c2ccc(F)cc2)s1 [Example 85]
25 | 100 to 500 nM | O=C(O)c1cc(NS(=O)(=O)c2cnc(-c3ccc(F)cc3)s2)co1 [Example 86]
26 | 1000 to 100000 nM | O=C(O)c1ccc(NS(=O)(=O)c2cnc(-c3ccc(F)cc3)s2)c2ccccc12 [Example 87]
27 | 1000 to 100000 nM | COc1cc(C(=O)O)ccc1NS(=O)(=O)c1csc(-c2ccc(F)c3ccccc23)n1 [Example 88]
28 | 1000 to 100000 nM | COc1cc(C(=O)O)ccc1NS(=O)(=O)c1csc(-c2ccc(F)c3ccoc23)n1 [Example 89]
29 | 1000 to 100000 nM | O=C(O)c1cnc(NS(=O)(=O)c2cnc(-c3ccc(F)cc3)s2)cn1 [Example 90]
30 | > 100000 nM | Cn1nc(C(=O)O)cc1NS(=O)(=O)c1cnc(-c2ccc(F)cc2)s1 [Example 91]
31 | 1000 to 100000 nM | O=C(O)c1cc(NS(=O)(=O)c2cnc(-c3ccc(F)cc3)s2)n(-c2ccccc2)n1 [Example 92]
32 | 1000 to 100000 nM | O=C(O)c1ccc2nc(NS(=O)(=O)c3cnc(-c4ccc(F)cc4)s3)oc2c1 [Example 93]
33 | 1000 to 100000 nM | O=C(O)c1ccc2nc(NS(=O)(=O)c3cnc(-c4ccc(F)cc4)s3)sc2c1 [Example 94]
34 | 100 to 500 nM | COc1cc(C(=O)O)ccc1NS(=O)(=O)c1csc(-c2cccc(F)c2)n1 [Example 95]
35 | 100 to 500 nM | COc1cc(C(=O)O)ccc1NS(=O)(=O)c1csc(-c2ccccc2F)n1 [Example 96]
36 | 100 to 500 nM | COc1cc(C(=O)O)ccc1NS(=O)(=O)c1csc(-c2ccc(C)cc2)n1 [Example 97]
37 | 100 to 500 nM | COc1cc(C(=O)O)ccc1NS(=O)(=O)c1csc(-c2ccc(C(F)(F)F)cc2)n1 [Example 98]
38 | 100 to 500 nM | COc1ccc(-c2nc(S(=O)(=O)Nc3ccc(C(=O)O)cc3OC)cs2)cc1 [Example 99]
39 | 1000 to 100000 nM | COc1cc(C(=O)O)ccc1NS(=O)(=O)c1csc(-c2ccncc2)n1 [Example 100]
40 | 1000 to 100000 nM | COc1cc(C(=O)O)ccc1NS(=O)(=O)c1csc(-c2ccn(C)n2)n1 [Example 101]
41 | < 100 nM | COc1cc(C(=O)O)ccc1NS(=O)(=O)c1csc(-c2ccccc2)n1 [Example 102]
42 | 500 to 1000 nM | COc1cc(C(=O)O)ccc1S(=O)(=O)Nc1csc(-c2ccccc2)n1 [Example 103]
43 | 1000 to 100000 nM | O=C(O)c1cnc(NS(=O)(=O)c2cnc(-c3ccc(F)cc3)s2)o1 [Example 104]
44 | 1000 to 100000 nM | COc1cc(C(=O)O)ccc1N(C)S(=O)(=O)c1cnc(-c2ccc(F)cc2)s1 [Example 105]
45 | 1000 to 100000 nM | O=C(O)c1ncc(NS(=O)(=O)c2cnc(-c3ccc(F)cc3)s2)cn1 [Example 106]
46 | 500 to 1000 nM | O=C(O)c1ccc(NS(=O)(=O)c2cnc(-c3ccc(F)cc3)s2)cc1O [Example 107]

Row | IC50 | SMILES
47 | 1000 to 100000 nM | O=S(=O)(Nc1ccc(O)cc1)c1cnc(-c2ccc(F)cc2)s1 [Example 108]
48 | 1000 to 100000 nM | O=S(=O)(Nc1ccc(O)cc1O)c1cnc(-c2ccc(F)cc2)s1 [Example 109]
49 | 1000 to 100000 nM | COc1cc(O)ccc1NS(=O)(=O)c1cnc(-c2ccc(F)cc2)s1 [Example 110]
50 | 1000 to 100000 nM | O=S(=O)(Nc1ccc(Br)cc1C(F)F)c1cnc(-c2ccc(F)cc2)s1 [Example 111]
51 | 100 to 500 nM | O=C(O)c1ccc(NS(=O)(=O)c2csc(-c3ccc(O)cc3)n2)c(O)c1 [Example 112]
52 | 1000 to 100000 nM | COc1ccc(NS(=O)(=O)c2cnc(-c3ccc(F)cc3)s2)cc1Cl [Example 113]
53 | 1000 to 100000 nM | O=S(=O)(Nc1ccc(O)c(Cl)c1)c1cnc(-c2ccc(F)cc2)s1 [Example 114]
54 | 1000 to 100000 nM | CS(=O)(=O)c1cc(C(=O)O)ccc1NS(=O)(=O)c1cnc(-c2ccc(F)cc2)s1 [Example 115]
55 | 1000 to 100000 nM | O=C(O)c1ccc(NS(=O)(=O)c2cnc(-c3ccc(F)cc3)s2)c2c1OCCO2 [Example 116]
56 | 1000 to 100000 nM | COc1cc(C(=O)O)ccc1NS(=O)(=O)c1csc(-c2ccc(C(=O)O)cc2)n1 [Example 117]
57 | > 100000 nM | O=S(=O)(O)c1ccc(NS(=O)(=O)c2cnc(-c3ccc(F)cc3)s2)cc1 [Example 118]
58 | 1000 to 100000 nM | COc1cc(S(N)(=O)=O)ccc1NS(=O)(=O)c1cnc(-c2ccc(F)cc2)s1 [Example 119]
59 | 1000 to 100000 nM | COc1cc(C(N)=O)ccc1NS(=O)(=O)c1cnc(-c2ccc(F)cc2)s1 [Example 120]
60 | 1000 to 100000 nM | CNS(=O)(=O)c1cc(OC)c(NS(=O)(=O)c2cnc(-c3ccc(F)cc3)s2)cc1C [Example 121]
61 | 1000 to 100000 nM | COc1cc(OC(F)F)ccc1NS(=O)(=O)c1cnc(-c2ccc(F)cc2)s1 [Example 122]
62 | 1000 to 100000 nM | COc1cc(C#N)ccc1NS(=O)(=O)c1cnc(-c2ccc(F)cc2)s1 [Example 123]
63 | 500 to 1000 nM | COc1cc(C(=O)O)ccc1NS(=O)(=O)c1csc(-c2cccc(C)c2)n1 [Example 124]
64 | 500 to 1000 nM | COc1cc(C(=O)O)ccc1NS(=O)(=O)c1csc(-c2ccccc2C)n1 [Example 125]
65 | 500 to 1000 nM | COc1cc(C(=O)O)ccc1NS(=O)(=O)c1csc(-c2cccc(C(F)(F)F)c2)n1 [Example 126]
66 | 500 to 1000 nM | COc1cc(C(=O)O)ccc1NS(=O)(=O)c1csc(-c2ccccc2C(F)(F)F)n1 [Example 127]
67 | 100 to 500 nM | COc1cc(C(=O)O)ccc1NS(=O)(=O)c1csc(-c2ccc(O)cc2)n1 [Example 128]
